Reference: EP0619297B1, “Fungicides for the control of take-all desease of plants” (MONSANTO COMPANY, priority 1993, dated 1994)
Converted amounts (≈) assume the structure as drawn. Where two headings read alike, the source gives them in different places.

Experiments:
Ggt = test: In vivo assay: control of Ggt on wheat in 3-inch pots with infested soil, rated after four weeks;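 as to In vivo(ppm) 0.1, percent disease control: rate is mg active ingredient per pot in 3 mL solution not ppm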;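 as to In vivo(ppm) 0.5, percent disease control: rate is mg active ingredient per pot in 3 mL solution not ppm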; parameters: species or system Gaeumannomyces graminis var. tritici; conditions: Gaeumannomyces graminis, 672 h; for pest or weed control at 0.02 mg/pot: rate 0.02mg/pot, read-out: In vivo(ppm) 0.02mg/pot, percent disease control; for pest or weed control at 0.1 mg/pot: read-out: In vivo(ppm) 0.1, percent disease control; for pest or weed control at 0.5 mg/pot: read-out: In vivo(ppm) 0.5, percent disease control
Experimental: Compounds are tested for control of Ggt on 'Bergen' or 'Anza' varieties of wheat grown in 3-inch square pots containing soil infested with Ggt. The infestation is accomplished by mixing the soil with an inoculum prepared by growing Ggt on 1/4 strength potato dextrose agar (4.875 g potato dextrose agar, 5.0 g Bacto agar, 500 mL distilled, deionized water) in plates and using plugs from the plates to infest sterile oats (400 cc whole oats, 350 mL deionized water, autoclaved). After a one-month incubation period at room temperature, the oats are dried and mixed with the soil at 4% v/v. Four wheat seeds are placed on top of the soil in each pot. […] Five pots are used for each treatment level and the controls, which are untreated, inoculated and non-inoculated pots. After one hour drying time, the seeds are covered with more of the appropriate soil and a layer of vermiculite. The pots are placed in a growth chamber and watered each day. After four weeks, each pot is evaluated for evidence of disease by examination of the seminal roots of each plant under a dissecting microscope. A 0 to 5 rating scale having the following meanings is used: • 0 = no runner hyphae or lesions present • 1 = runner hyphae and a few small lesions present on <10% of root system • 2 = runner hyphae and small lesions present on 10 - 25% of root system • 3 = runner hyphae and lesions present on 25 - 50% of root system • 4 = runner hyphae and many, large, coalescing lesions on >50% of root system • 5 = root system and culm completely inundated with lesions and runner hyphae
From each set of five replicates a high or low score may be eliminated to assure the best representative scores are used to calculate a replicate mean by averaging the remaining scores. This mean score is then compared to the untreated control score and a percent disease control is calculated.

[1] = system: Gaeumannomyces graminis var. tritici (Ggt); test: In vitro assay: mycelial growth on minimal media agar plates (Percent Inhibition; IC50); type: cell-based; conditions: for inhibition at 0.1 ppm: read-out: In vitro(ppm) 0.1, Percent Inhibition; for inhibition at 1 ppm: read-out: In vitro(ppm) 1, Percent Inhibition; for inhibition at 10 ppm: read-out: In vitro(ppm) 10, Percent Inhibition; for IC50: interpolated from percent inhibition at 1, 0.1, 0.01, 0.001 and 0.0001 ppm
Experimental: The test compounds (0.25 mL of an appropriate stock solution in acetone) are incorporated into 25 mL minimal media agar [prepared by autoclaving a solution of 17.5 g Czapek Dox broth (Difco), 7.5 g purified agar or Bacto-agar (Difco), and 500 mL distilled/deionized water, and then adding 50 µL of 1 mg/mL thiamine hydrochloride and 50 µL of 1 mg/mL biotin in 5% ethanol] and plates are prepared.
Each plate is inoculated by placing in a triangular shape three 4-mm plugs of Gaeumannomyces graminis var. tritici (Ggt) grown on the minimal media agar described above. The plates are incubated in the dark at 19 - 20 °C for 4 to 5 days. The growth of the fungus is measured as the diameter of the mycelial growth. The result is expressed as Percent Inhibition, calculated as [1 - [(mm growth on treated plate - 4)/(mm growth on control plate - 4)]] x 100.
To determine IC5O values, an in vitro assay was run on each compound at the concentrations of 1, 0.1, 0.01, 0.001, and 0.0001 ppm. The percent inhibition was calculated for each concentration using the equation described in the in vitro assay under the section on Biological Assays. Using the two ordered pairs of (concentration, % inhibition) that bracket 50% inhibition of fungal growth, the concentration for 50% inhibition is calculated from the following equation. IC50 = [(50-I2 )C1 + (I1 -50)C2 ]/(I1 -I2 ), [formula] where C1 = 10C2.

[2] = wheat, soil infested with Ggt, after four weeks
[3] = rate 0.1 (head prints ppm, head line ends mg/pot), wheat, soil infested with Ggt, after four weeks, N = no control
[4] = rate 0.5 (head prints ppm, head line ends mg/pot), wheat, soil infested with Ggt, after four weeks, N = no control
[5] = 0.1 ppm in agar, 19 - 20 °C, 4 to 5 days
[6] = 1 ppm in agar, 19 - 20 °C, 4 to 5 days
[7] = 10 ppm in agar, 19 - 20 °C, 4 to 5 days

| IC50 [1] [ng/mL] | SMILES | pest or weed control at 0.02 mg/pot (Ggt; [2]) [%] | pest or weed control at 0.1 mg/pot (Ggt; [3]) [%] | pest or weed control at 0.5 mg/pot (Ggt; [4]) [%] | inhibition at 0.1 ppm [1, 5] [%] | inhibition at 1 ppm [1, 6] [%] | inhibition at 10 ppm [1, 7] [%] | pest or weed control at 0.1 mg/pot (Ggt; soil) [%] | pest or weed control at 0.5 mg/pot (Ggt; soil) [%] | inhibition at 0.1 ppm [1] [%] | inhibition at 1 ppm [1] [%] | inhibition at 10 ppm [1] [%] |
| --- | --- | --- | --- | --- | --- | --- | --- | --- | --- | --- | --- | --- |
|  | CCNC(=O)c1c(OC(C)(CC)CC)ccc2ccccc12 [Example 28, N-ethyl 2-[(1,1-diethylethyl)oxy]-1-naphthamide] | 19 | 40 | 78 | 74 | 96 | 96 |  |  |  |  |  |
|  | CCNC(=O)c1c([Si](C)(C)C)oc2ccccc12 [Example 12, N-Ethyl-2-(trimethylsilyl)-3-benzofurancarboxamide] |  |  |  |  |  |  | 85 | 97 | 97 | 97 | 100 |
|  | CC(C)N(O)C(=O)c1c([Si](C)(C)C)sc2ccccc12 [Example 17, N-Hydroxy-N-(1-methylethyl)-2-(trimethylsilyl)benzo[b]-thiophene-3-carboxamide] |  |  |  |  |  |  | 42 | 46 | 96 | 100 | 100 |
| 6.47 (≈ 0.0199 µM) | C=CCNC(=O)c1c(OC(CC)(CC)CC)ccc2ccccc12 [Example 33, N-allyl 2-[(1,1-diethylpropyl)oxy]-1-naphthamide] | 19 | 45 | 59 | 97 | 100 | 100 |  |  |  |  |  |
|  | CCCNC(=O)c1c(OC(C)(CC)CC)ccc2ccccc12 [Example 31, N-propyl 2-[(1,1-diethylethyl)oxy]-1-naphthamide] | 0 | 0 | 3 | 7 | 17 | 98 |  |  |  |  |  |
| 6.62 (≈ 0.0222 µM) | CCNC(=O)c1c(NC(C)(CC)CC)ccc2ccccc12 [Example 23, N-ethyl 2-[(1,1-diethylethyl)amino]-1-naphthamide] | 50 | 65 | 85 | 21 | 21 | 43 |  |  |  |  |  |
|  | CCN(CC)C(=O)c1c([Si](C)(C)C)ccc2ccccc12 [Example 3, N,N-Diethyl-2-(trimethylsilyl)-1-naphthalenecarboxamide] |  |  |  |  |  |  |  | 68 | 0 | 0 | 100 |
|  | CCNC(=O)C1=C([Si](C)(C)C)S(=O)(=O)c2ccccc21 [Example 15, N-Ethyl-2-(trimethylsilyl)benzo[b]thiophene-3-carboxamide 1,1-dioxide] |  |  |  |  |  |  |  |  | 10 | 30 | 83 |
|  | CCNC(=O)c1c(OC2(C)CCCCC2)ccc2ccccc12 [Example 38, N-ethyl 2-[(1-methyl-1-cyclohexyl)oxy]-1-naphthamide] |  |  |  | 0 | 43 | 30 |  |  |  |  |  |
|  | CCNC(=O)c1c([Si](C)(C)C)n(C)c2ccccc12 [Example 10, N-Ethyl-1-Methyl-2-(trimethylsilyl)-1H-indole-3-carboxamide] |  |  |  |  |  |  |  |  | 13 | 80 | 85 |
|  | CCNC(=O)c1oc2ccccc2c1[Si](C)(C)C [Example 11, N-Ethyl-3-(trimethylsilyl)-2-benzofurancarboxamide] |  |  |  |  |  |  |  |  | 27 | 42 | 82 |
